# Measured values from ChEMBL document CHEMBL4130627, “Prodrugs of the Phosphoribosylated Forms of Hydroxypyrazinecarboxamide Pseudobase T-705 and Its De-Fluoro Analogue T-1105 as Potent Influenza Virus Inhibitors” (J Med Chem, 2018).
# Calls of active or inactive are those of the source. The calls are words filed in the database; no cut-off is given here.
# Experiments:
# [1] = Half life of the compound in 25 mM phosphate buffe at pH 1.5 to 7.3 by RP-HPLC analysis; format: physicochemical; conditions: phosphate buffer
# [2] = Cytotoxicity against MDCK cells assessed as change in cell morphology after 3 days by microscopic analysis; format: cell-based, Canis lupus familiaris; conditions: dog
# Influenza B virus [3] = assay: microbe, parasite or virus in culture; conditions: Ned/537/05, MDCK, 72 h
# Description: Antiviral activity against Influenza virus B/Ned/537/05 infected in MDCK cells assessed as reduction in viral replication at 3 days post infection by formazan-based MTS assay
# [4] = Cytotoxicity against MDCK cells assessed as reduction in cell viability after 3 days by formazan-based MTS assay; set-up: species or system Canis lupus familiaris; conditions: dog
# Influenza A virus [5] = assay: microbe, parasite or virus in culture; conditions: MDCK, 72 h
# Description: Antiviral activity against Influenza virus A/X-31 infected in MDCK cells assessed as reduction in viral replication at 3 days post infection by formazan-based MTS assay
# [6] = Cytotoxicity against HGPRT deficient 6-thioguanine-resistant MDCK cells assessed as change in cell morphology after 3 days by microscopic analysis; format: cell-based, Canis lupus familiaris; conditions: dog
# Influenza B virus [7] = assay: microbe, parasite or virus in culture; conditions: Ned/537/05, MDCK, 72 h; remark: listed apart in the source
# Description: Antiviral activity against Influenza virus B/Ned/537/05 infected in MDCK cells assessed as reduction in viral replication at 3 days post infection by microscopic analysis
# Influenza A virus [8] = assay: microbe, parasite or virus in culture; conditions: MDCK, 72 h; remark: listed apart in the source
# Description: Antiviral activity against Influenza virus A/X-31 infected in MDCK cells assessed as reduction in viral replication at 3 days post infection by microscopic analysis
# [9] = Prodrug activation in phosphate buffer at pH 7.3 assessed as half life for T-1105-RMP formation up to 332 hrs by RP-HPLC-UV analysis; format: physicochemical; conditions: pH 7.3, 332 h
# Influenza A virus [10] = format: functional, organism-based; conditions: Influenza A virus (A/X-31(H3N2)); MDCK; 100 uM
# Influenza A virus [11] = format: functional, organism-based; conditions: Influenza A virus (A/X-31(H3N2)); MDCK; 250 uM
# Influenza A virus [12] = format: functional, organism-based; conditions: Influenza A virus (A/X-31(H3N2)); MDCK; 250 uM; remark: listed apart in the source
# [13] = Inhibition of Influenza virus A/X-31 RNA dependent RNA polymerase using ApG primer [adenyl (3'-5') guanosine] and [8-3H]GTP after 1 hr by filter-based assay; set-up: species or system Influenza A virus (A/X-31(H3N2))
# [14] = Inhibition of Influenza virus B/Ned/537/05 RNA dependent RNA polymerase using ApG primer [adenyl (3'-5') guanosine] and [8-3H]GTP after 1 hr by filter-based assay
# MDCK [15] = assay: Prodrug activation in MDCK cells assessed as T-1105-RDP formation at 500 uM after 2 hrs by RP-HPLC-UV analysis; format: cell-based, Canis lupus familiaris; conditions: dog
# [16] = Drug metabolism in MDCK cells assessed as T-1105-RDP formation at 450 uM up to 4 hrs by RP-HPLC-UV analysis; format: ADME, cell-based, Canis lupus familiaris; conditions: dog
# MDCK [17] = format: cell-based, Canis lupus familiaris; conditions: dog, 2 h, 500 µM
# MDCK [18] = assay: Prodrug activation in MDCK cells assessed as T-1105-RMP formation at 450 uM up to 4 hrs by RP-HPLC-UV analysis; format: cell-based, Canis lupus familiaris; conditions: dog
# MDCK [19] = assay: Prodrug activation in MDCK cells assessed as T-1105-RTP formation at 450 uM up to 4 hrs by RP-HPLC-UV analysis; format: cell-based, Canis lupus familiaris; conditions: dog
# Liver carboxylesterase = biological target: T1, Liver carboxylesterase (Sus scrofa, UniProt Q29550); assay: Drug metabolism assessed as pig liver esterase mediated 4-(((((((2R,3S,4R,5R)-5-(3-carbamoyl-2-oxopyrazin-1(2H)-yl)-3,4-dihydroxytetrahydrofuran-2-yl)methoxy)(hydroxy)phosphoryloxy)(hydroxy)phosphoryloxy)(hydroxy)phosphoryloxy)methyl)phenyl decanoate formation at 450 uM after 1 to 8 hrs by RP-HPLC-UV analysis; format: ADME; conditions: isolated protein
# T1 sequence (Q29550 whole entry): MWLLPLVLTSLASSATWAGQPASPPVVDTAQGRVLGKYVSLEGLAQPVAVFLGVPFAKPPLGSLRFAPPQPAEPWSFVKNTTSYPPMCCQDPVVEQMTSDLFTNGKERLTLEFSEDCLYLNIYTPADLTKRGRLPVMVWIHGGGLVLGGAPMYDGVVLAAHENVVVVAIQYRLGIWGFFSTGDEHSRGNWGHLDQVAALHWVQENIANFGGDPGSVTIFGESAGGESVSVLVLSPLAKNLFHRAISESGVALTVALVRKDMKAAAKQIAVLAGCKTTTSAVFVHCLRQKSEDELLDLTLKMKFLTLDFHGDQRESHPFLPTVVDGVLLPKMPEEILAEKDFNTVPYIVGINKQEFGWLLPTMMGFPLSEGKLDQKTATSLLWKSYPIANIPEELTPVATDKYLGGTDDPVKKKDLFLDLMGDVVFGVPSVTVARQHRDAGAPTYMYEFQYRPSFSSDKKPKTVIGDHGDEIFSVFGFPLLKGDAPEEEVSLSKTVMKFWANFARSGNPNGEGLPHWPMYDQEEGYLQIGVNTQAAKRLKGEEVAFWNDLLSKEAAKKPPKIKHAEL
# [20] = Drug metabolism in MDCK cells assessed as 4-((((((2R,3S,4R,5R)-5-(3-carbamoyl-2-oxopyrazin-1(2H)-yl)-3,4-dihydroxytetrahydrofuran-2-yl)methoxy)(hydroxy)phosphoryloxy)(hydroxy)phosphoryloxy)methyl)phenyl decanoate formation at 450 uM up to 4 hrs by RP-HPLC-UV analysis; format: ADME, cell-based, Canis lupus familiaris; conditions: dog
SMILES,half-life [1],MCC at 72 h [2],EC50 (Influenza B virus [3]),CC50 at 72 h [4],EC50 (Influenza A virus [5]),MCC at 72 h [6],EC50 (Influenza B virus [7]),EC50 (Influenza A virus [8]),further results
Nc1ncnc2c1ncn2[C@H]1CC[C@@H](COP2(=O)OCc3ccccc3O2)O1 (some centres not stated),10 to 45 h,,,,,,,,
NC(=O)c1nc(Br)cn([C@@H]2O[C@H](CO)[C@@H](O)[C@H]2O)c1=O,,> 250 µM,> 250 µM,> 250 µM,> 250 µM,> 250 µM,> 250 µM,> 250 µM,
Cc1cccc2c1OP(=O)(OC[C@@H]1C=C[C@H](n3cnc4c(=O)[nH]cnc43)O1)OC2 (some centres not stated),10 to 45 h,,,,,,,,
NC(=O)c1nccn([C@@H]2O[C@H](CO)[C@@H](O)[C@H]2O)c1=O,,> 250 µM,19 µM,> 250 µM,52 µM,> 250 µM,24 µM,58 µM,
CC(=O)O[C@@H]1[C@H](OC(C)=O)[C@@H](COP2(=O)OCc3cccc(C)c3O2)O[C@H]1n1ccnc(C(N)=O)c1=O (some centres not stated),,400 µM,128 µM,> 400 µM,> 400 µM,400 µM,> 400 µM,> 400 µM,
Cc1cccc2c1OP(=O)(OC[C@H]1O[C@@H](n3ccnc(C(N)=O)c3=O)[C@H](O)[C@@H]1O)OC2 (some centres not stated),,> 400 µM,135 µM,> 400 µM,> 400 µM,> 400 µM,176 µM,280 µM,t1/2 [9]: 1.2 h
NC(=O)c1nc(F)cnc1O,,,8.3 µM,,26 µM,,9 µM,24 µM,inhibition (Influenza A virus [10]): Active; inhibition (Influenza A virus [11]): inactive; inhibition (Influenza A virus [12]): Active
NC(=O)c1nc(F)cn([C@@H]2O[C@H](COP(=O)(O)OP(=O)(O)OP(=O)(O)O)[C@@H](O)[C@H]2O)c1=O,,,,,,,,,IC50 [13]: 2.7 µM; IC50 [14]: 2.7 µM
Cc1cccc2c1OP(=O)(OC[C@@H]1CC[C@H](n3cnc4c(=O)[nH]cnc43)O1)OC2 (some centres not stated),10 to 45 h,,,,,,,,
CCCCCCCCCC(=O)Oc1ccc(COP(=O)(OCc2ccc(OC(=O)CCCCCCCCC)cc2)OP(=O)(O)OP(=O)(O)OC[C@H]2O[C@@H](n3ccnc(C(N)=O)c3=O)[C@H](O)[C@@H]2O)cc1.CCN(CC)CC.CCN(CC)CC,,16 µM,2.4 µM,30 µM,3.6 µM,13 µM,2.6 µM,2.6 µM,IC50 [13]: 49 to 126 µM; Drug metabolism (MDCK [15]): Metabolite_Detected; Drug metabolism [16]: Metabolite_Detected; Drug metabolism (MDCK [17]): Metabolite_Detected; Drug metabolism (MDCK [18]): Metabolite_Detected; Drug metabolism (MDCK [19]): Metabolite_Notdetected; IC50 [14]: 49 to 126 µM; Drug metabolism (Liver carboxylesterase): Metabolite_Detected; Drug metabolism [20]: Metabolite_Detected
